Where “and” joins values, the source holds several entries; their conditions need not be identical. Identical values can stand only once. Like-named read-outs stand apart in the source and are kept apart here.
Assays:
TPH1 = molecular target: T1, TPH1 (Homo sapiens, UniProt P17752); assay: Differential scanning fluorimetry (DSF) thermal stability assay; assay type: binding; details: for Tm (°C) ± SD (°C), primary screen / ΔTm at 50 µM / ΔTm (°C) ± SD (°C), primary screen: DSF, 50 μM compound; for Tm (°C) ± SD (°C), primary screen: 0.075 mg/mL TPH1, 0.5% DMSO, three independent measurements (a: duplicates); for ΔTm at 50 µM / ΔTm (°C) ± SD (°C), primary screen: vs averaged Tm of 0.5% DMSO controls; for ΔTm at 50 µM: read-out: ΔTm (°C) ± SD (°C), primary screen; for Kd: read-out: apparent KD (μM), dose-response
T1 construct: doubly truncated human TPH1 (ΔNH102-ΔCOOH402); made in house; host or cells: E. coli BL21(DE3)
T1 sequence (P17752 102-402): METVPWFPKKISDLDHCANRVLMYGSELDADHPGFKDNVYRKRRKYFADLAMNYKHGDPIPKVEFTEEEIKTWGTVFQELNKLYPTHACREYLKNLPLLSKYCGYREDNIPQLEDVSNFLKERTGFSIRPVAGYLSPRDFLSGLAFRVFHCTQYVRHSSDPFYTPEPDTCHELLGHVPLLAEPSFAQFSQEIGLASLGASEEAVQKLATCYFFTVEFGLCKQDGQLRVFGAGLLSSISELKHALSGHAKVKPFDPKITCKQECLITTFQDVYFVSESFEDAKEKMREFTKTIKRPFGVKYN
Description: A fluorescence-based thermal stability assay (differential scanning fluorimetry, DSF) was used for testing the effects of HDIs on the thermal stability of TPH1.
For initial high throughput screening (HTS), compounds were prepared at a concentration of 10 mM (in some cases, 5 mM) in 100% DMSO. Initial HTS screening was performed on TPH1 with and without compounds using a LightCycler 480 Real-Time PCR System (Roche Applied Science). TPH1 was diluted to 0.075 mg/mL in 50 mM Tris pH 8.0, 200 mM NaCl, 0.5 mM TCEP, and 5% glycerol with 5x SYPRO Orange. Compounds were added to a final concentration of 50 μM. Controls with 0.5% DMSO were performed on each 384-well microplate. Unfolding curves were recorded from 20 to 95 °C at a scan rate of 2 °C/min and monitored at excitation = 465 nm and emission = 610 nm. Selected hits were validated further by serial dilution from 250 μM to 122 nM, keeping the DMSO concentration constant at 2%.
DSF data were analyzed using HTSDSF Explorer.[55] Melting temperature (Tm) was calculated from the maximum value of the first derivative of the unfolding curve. ΔTm (Tm with compound–averaged Tm in DMSO controls) was plotted for all validated curves and a threshold of 2 °C was set (typically, cutoff at ΔTm = 3-fold the SD of the Tm of the DMSO control).
Preliminary binding constants (KD) were calculated by fitting data to the equation [drawing 1] where ΔH0 is the enthalpy of the unfolding of the protein in the presence of ligand ([L]), and R is the gas constant.

[1] = Solubility observed in DSF dose-response; assay type: physicochemical; details: highest concentrations removed before curve fitting
human PAH = molecular target: T2, human PAH (Homo sapiens, UniProt P00439); assay: PAH enzyme activity assay (HPLC, L-Tyr); assay type: biochemical; details: best-fit IC50 (± SE), nonlinear regression, N.A. = no activity
T2 construct: Full-length human TH isoform 1 (TH1), human PAH, human TPH2, and doubly truncated human TPH1; made in house; host or cells: E. coli TB1
T2 sequence (P00439 1-452): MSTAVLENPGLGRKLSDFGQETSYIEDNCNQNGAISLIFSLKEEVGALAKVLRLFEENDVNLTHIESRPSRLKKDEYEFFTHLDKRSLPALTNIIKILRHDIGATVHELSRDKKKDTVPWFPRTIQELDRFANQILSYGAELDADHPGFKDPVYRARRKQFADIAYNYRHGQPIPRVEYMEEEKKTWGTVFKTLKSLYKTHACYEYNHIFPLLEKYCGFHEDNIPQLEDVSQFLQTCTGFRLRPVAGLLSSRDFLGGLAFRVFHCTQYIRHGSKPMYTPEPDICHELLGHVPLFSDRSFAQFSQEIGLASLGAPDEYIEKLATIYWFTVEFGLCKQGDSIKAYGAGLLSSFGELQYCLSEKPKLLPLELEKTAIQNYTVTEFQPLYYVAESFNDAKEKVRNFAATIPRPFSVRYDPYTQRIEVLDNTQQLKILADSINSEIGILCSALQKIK

human TH isoform 1 (TH1) = molecular target: T3, human TH isoform 1 (TH1) (Homo sapiens, UniProt P07101); assay: TH enzyme activity assay (HPLC, L-DOPA); assay type: biochemical; details: best-fit IC50 (± SE), nonlinear regression; N.A. = no activity
T3 construct: Full-length human TH isoform 1 (TH1); His6-ZZ fusion partner (one of the two preparations only) (cleaved yes); made in house; host or cells: E. coli BL21(DE3) pLysS (pET3a) or BL21 CodonPlus (pET-ZZ-1a)
T3 sequence (P07101 1-497 isoform P07101-3): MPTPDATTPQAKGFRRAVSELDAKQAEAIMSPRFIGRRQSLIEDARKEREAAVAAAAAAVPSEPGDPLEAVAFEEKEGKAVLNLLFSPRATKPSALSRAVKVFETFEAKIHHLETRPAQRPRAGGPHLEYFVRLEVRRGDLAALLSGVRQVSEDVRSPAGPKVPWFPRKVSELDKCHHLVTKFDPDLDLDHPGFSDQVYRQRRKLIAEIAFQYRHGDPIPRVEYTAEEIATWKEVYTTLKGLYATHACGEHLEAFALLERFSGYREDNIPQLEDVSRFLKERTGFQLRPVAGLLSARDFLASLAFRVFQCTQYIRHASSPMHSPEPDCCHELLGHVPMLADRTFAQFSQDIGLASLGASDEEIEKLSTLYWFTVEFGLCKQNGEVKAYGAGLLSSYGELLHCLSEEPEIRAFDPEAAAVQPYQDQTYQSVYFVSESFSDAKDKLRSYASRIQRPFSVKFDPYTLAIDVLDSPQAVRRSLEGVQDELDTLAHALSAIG
Description: The activity of purified PAH, TH, TPH1, and TPH2 was measured using high-performance liquid chromatography (HPLC) as previously described.[50],[56],[57]
TH activities were performed in a standard reaction mixture containing 40 mM Hepes (pH 7.0), 0.1 mg/mL catalase, 10 μM ferrous ammonium sulfate, and 50 μM L-Tyr. Compounds were incubated with TH (0.01 mg/mL) in the reaction mixture for 10 min on ice. The enzymatic reaction was initiated by adding 200 μM BH4 and 2 mM DTT (final concentrations) and stopped by precipitation with 2% (v/v) acetic acid in ethanol after 5 min at 37 °C. The product, L-DOPA, was quantified by HPLC utilizing a fluorescence monitor set at 281 and 314 nm for excitation and emission, respectively.
GraphPad Prism (version 10; La Jolla, CA) was used for analyzing the enzyme inhibition data.

HDAC 6 = details: human recombinant HDAC; ref 5 (10.1021/acs.jmedchem.8b01090); cited from earlier work
[2] = molecular target: T4, doubly truncated human TPH1 (ΔNH102-ΔCOOH402) (Homo sapiens, UniProt P17752); assay: TPH1 enzyme activity assay (HPLC, 5-OH-Trp); assay type: biochemical; details: for IC50: best-fit IC50 (± SE), nonlinear regression, N.A. = no activity
T4 construct: doubly truncated human TPH1 (ΔNH102-ΔCOOH402); made in house; host or cells: E. coli BL21(DE3)
T4 sequence (P17752 102-402, stated change not applied): as the sequence (P17752 102-402) above
Description: (§1) TPH1 enzymatic activity assays were performed with the selected hits from the DSF screening in the presence and absence of 50 μM of each compound. The final concentration of DMSO was 0.5% (v/v), and control experiments used 0.5% DMSO in the absence of ligand. Assays were performed in a standard reaction mixture containing 40 mM Hepes pH 7.0, 200 mM NaCl, 0.1 mg/mL catalase, 0.5 mg/mL BSA, 10 μM ferrous ammonium sulfate, and 30 μM L-tryptophan (L-Trp). Compounds were incubated with TPH1 (0.02 mg/mL) in the reaction mixture for 10 min on ice.

HDAC 1 = details: human recombinant HDAC; ref 5 (10.1021/acs.jmedchem.8b01090); cited from earlier work
human TPH2 = molecular target: T5, human TPH2 (Homo sapiens, UniProt Q8IWU9); assay: TPH2 enzyme activity assay (HPLC); assay type: biochemical; details: best-fit IC50 (± SE), nonlinear regression; N.A. = no activity
T5 construct: Full-length human TH isoform 1 (TH1), human PAH, human TPH2, and doubly truncated human TPH1; MBP (cleaved yes); made in house; host or cells: E. coli BL21(DE3)
T5 sequence (Q8IWU9 1-490): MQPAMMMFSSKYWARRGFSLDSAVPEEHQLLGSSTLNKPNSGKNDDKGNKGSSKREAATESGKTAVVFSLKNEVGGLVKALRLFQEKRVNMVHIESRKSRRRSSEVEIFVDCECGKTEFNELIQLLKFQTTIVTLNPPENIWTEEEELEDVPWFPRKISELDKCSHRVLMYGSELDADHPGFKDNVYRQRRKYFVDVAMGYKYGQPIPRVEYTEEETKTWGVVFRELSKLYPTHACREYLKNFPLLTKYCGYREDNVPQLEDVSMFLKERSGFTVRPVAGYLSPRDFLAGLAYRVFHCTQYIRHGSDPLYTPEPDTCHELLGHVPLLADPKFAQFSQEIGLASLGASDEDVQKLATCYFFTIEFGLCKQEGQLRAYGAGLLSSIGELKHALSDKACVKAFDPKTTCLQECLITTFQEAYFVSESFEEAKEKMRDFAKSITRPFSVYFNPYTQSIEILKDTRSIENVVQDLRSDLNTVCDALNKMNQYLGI
Description: as §1

human recombinant HDAC1 = molecular target: T6, human recombinant HDAC1 (Homo sapiens, UniProt Q13547); assay: HDAC1 activity assay (homogeneous fluorescence, ZMAL); assay type: biochemical; details: 1.11–30 μM compound, DMSO (5%) control
T6 construct: purchased BPS Bioscience 50051
T6 sequence (Q13547 whole entry): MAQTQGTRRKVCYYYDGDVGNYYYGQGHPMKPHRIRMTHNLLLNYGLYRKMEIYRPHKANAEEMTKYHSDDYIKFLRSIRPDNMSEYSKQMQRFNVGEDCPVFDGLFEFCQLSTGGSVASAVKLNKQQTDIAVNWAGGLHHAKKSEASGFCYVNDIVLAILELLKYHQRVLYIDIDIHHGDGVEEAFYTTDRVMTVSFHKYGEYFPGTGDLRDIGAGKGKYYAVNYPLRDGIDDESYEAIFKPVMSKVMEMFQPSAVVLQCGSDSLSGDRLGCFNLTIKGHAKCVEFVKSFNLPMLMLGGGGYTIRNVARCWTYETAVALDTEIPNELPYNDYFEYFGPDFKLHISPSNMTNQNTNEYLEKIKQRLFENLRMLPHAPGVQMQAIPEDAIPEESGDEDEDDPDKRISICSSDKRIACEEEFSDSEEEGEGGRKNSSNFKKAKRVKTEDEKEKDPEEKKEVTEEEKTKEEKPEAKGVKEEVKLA
Description: HDAC1 inhibition was determined by using a homogeneous fluorescence assay as previously described.[58] For HDAC1 activity assay, OptiPlate-96 black microplates (PerkinElmer) were used.

HDAC 8 = details: human recombinant HDAC; ref 1 (PMID: 26443078); cited from earlier work
[3] = estimated from DSF dose-response, 2% DMSO

| SMILES | Tm (°C) ± SD (°C), primary screen (TPH1) | ΔTm (°C) ± SD (°C), primary screen (TPH1) [°C] | Kd (TPH1; [3]) | further results |
| --- | --- | --- | --- | --- |
| Oc1ccccc1-c1nc2ccccc2o1 [2-(2-OH-phenyl)benzoxazol, 2-(2-hydroxyphenyl)benzoxazole, reference compound] | 57.6 ± 0.7 °C |  |  | ΔTm at 50 µM (TPH1): 2.3 ± 0.9 °C |
| Cc1ccc(C(=O)NO)cc1C(=O)Nc1ccc(Cl)cc1 [EG23, 3-(4-Chlorophenylcarbamoyl)-N-hydroxy-4-methylbenzamide] | 58.2 ± 0.2 °C | 2.7 ± 0.2 | 14.1 µM |  |
| Cc1cc2cc(NS(=O)(=O)c3cc(C(=O)NO)ccc3Cl)ccc2n(C)c1=O [EG29, 4-Chloro-3-[(1,3-dimethyl-2-oxo-1,2-dihydroquinolin-6-yl)sulfamoyl]-N-hydroxybenzamide] | 57.8 ± 0.0 °C | 2.3 ± 0.2 | 10.3 µM |  |
| COc1ccc2c(c1)N(Cc1ccc(C(=O)NO)cc1)c1ccccc1S2 [KV103, N-Hydroxy-4-[(2-methoxy-10H-Phenothiazin-10-yl)methyl]benzamide] | 59.6 ± 0.7 °C | 4.3 ± 0.5 | 49.4 µM | IC50 (human PAH; read-out: IC50 (μM) PAH): 8.12 ± 1.67 µM; IC50 (human TH isoform 1 (TH1)): 100 ± 128 µM; IC50 (HDAC 6): 0.01 ± 0.001 µM; IC50 [2]: 106 ± 177 µM; inhibition of TPH1 activity at 50 μM ([2]; compound 50 μM, 0.5% DMSO): more than 50%; IC50 (HDAC 1): 2.07 ± 0.19 µM; IC50 (human TPH2): 9.78 ± 17.2 µM |
| N[C@@H](Cc1ccc(Cl)cc1)C(=O)O [L-PCPA, 4-chloro-L-phenylalanine] |  |  |  | effect on HDAC1 activity (human recombinant HDAC1): do not inhibit |
| Nc1ccccc1NC(=O)c1ccc(CNC(=O)OCc2cccnc2)cc1 [entinostat, reference compound] | 56.0 ± 0.4 °C |  |  | ΔTm at 50 µM (TPH1): 0.7 ± 0.3 °C |
| Cc1ccn(-c2cc(Cl)ccc2[C@@H](Oc2cc(-c3ccc(C[C@H](N)C(=O)O)cc3)nc(N)n2)C(F)(F)F)n1 [telotristat] |  |  |  | IC50 (human PAH; read-out: IC50 (μM) PAH): 4.9 µM; IC50 (human TH isoform 1 (TH1)): 4.2 µM; effect on HDAC1 activity (human recombinant HDAC1): do not inhibit |
| O=C(CCCCCCC(=O)Nc1ccccc1)NO [vorinostat, reference compound] | 56.4 ± 1.9 °C |  |  | IC50 (human PAH; IC50 (μM) PAH): 1.72 ± 0.61 µM; IC50 (HDAC 8): […]; ΔTm at 50 µM (TPH1): 1.1 ± 2.1 °C |
| CC(C)c1cccc(=O)c(O)c1 [β-thujaplicin, reference compound] |  |  |  | IC50 (human PAH; read-out: IC50 (μM) PAH): 0.46 µM and 0.5 µM; IC50 (human TH isoform 1 (TH1)): 1.37 µM and 1.4 µM; effect of increasing compound concentration on the Tm of TPH1 (TPH1; DSF dose-response): concentration-dependent shift by decreasing the Tm; ΔTm at 50 µM (TPH1): -1.7 ± 0.1 °C; apparent KD (μM), dose-response (TPH1; [3]): very low affinity; IC50 [2]: 12.6 µM; inhibition at 50 µM ([2]; compound 50 μM, 0.5% DMSO): > 50%; IC50 (human TPH2): 12.9 µM |

The next lines start with results.

| Tm (°C) ± SD (°C), primary screen (TPH1) | ΔTm (°C) ± SD (°C), primary screen (TPH1) [°C] | Kd (TPH1; [3]) | SMILES | further results |
| --- | --- | --- | --- | --- |
| 58.5 ± 0.2 ^a °C | 3.1 ± 0.0 | 30.9 µM | O=C(NO)c1coc(C(c2ccccc2)c2ccccc2)n1 [JS32, 2-(diphenylmethyl)-1,3-oxazole-4-carbohydroxamic acid] | solubility at the highest concentrations [1]: solubility issues |
| 59.1 ± 0.5 ^a °C | 3.6 ± 0.3 | > 100 µM | O=C(NO)c1ccc(CN2c3ccccc3Sc3ccccc32)cc1 [KV46, 4-[(10H-phenothiazin-10-yl)methyl]-N-hydroxybenzamide] | solubility at the highest concentrations [1]: solubility issues |
| 57.0 ± 0.2 °C | 1.6 ± 0.1 | 54.6 µM | COc1ccc(C(=O)NO)cc1OCc1ccccc1 [PZ031, 3-Benzyloxy-4-methoxybenzhydroxamic acid] |  |
| 58.0 ± 0.3 °C | 2.7 ± 0.0 |  | COC(=O)[C@H](Cc1ccc(-c2ccc(C)cc2)cc1)NC(=O)CCCCCCC(=O)NO [SW189] |  |
| 59.7 ± 0.4 °C | 4.4 ± 0.4 | 0.7 µM and 1.4 µM | O=C(NO)c1cc2ccccc2[nH]1 [TB74, 1H-Indole-2-hydroxamic acid] | solubility at the highest concentrations [1]: solubility issues; inhibition of TPH1 activity at 50 μM ([2]; compound 50 μM, 0.5% DMSO): no significant inhibition |
| 58.1 ± 0.3 °C | 2.8 ± 0.1 | 76.3 µM | O=C(NO)c1cccc(NCc2ccccc2)c1 [TH28, 3-N-Benzylamino-benzohydroxamate] |  |
| 60.0 ± 0.3 °C | 4.7 ± 0.1 | 1.8 µM | COc1ccc(C(=O)NO)cc1NS(=O)(=O)c1ccc(C)cc1 [TH71, 3-(N-para-touluenyl)-sulfonamido-4-methoxy-benzohydroxamate] |  |
